From patent US20120322654A1, “SYNERGISTIC FUNGICIDAL MIXTURES” (BASF SE, priority 2010, published 2012)

System: Septoria tritici
Assay: Microtiter plate test, activity against Septoria tritici (leaf blotch on wheat)
Type: cell-based
Conditions: MTP, absorption at 405 nm 7 days after inoculation, 18° C
Experimental: The active compounds were formulated separately as a stock solution having a concentration of 10000 ppm in dimethyl sulfoxide.
Activity Against Septoria tritici, the Causal Agent of Leaf Blotch on Wheat
The stock solutions were mixed according to the ratio, pipetted onto a micro titer plate (MTP) and diluted with water to the stated concentrations. A spore suspension of Septoria tritici in an aqueous biomalt solution was then added. The plates were placed in a water vapor-saturated chamber at a temperature of 18° C. Using an absorption photometer, the MTPs were measured at 405 nm 7 days after the inoculation.
The measured parameters were compared to the growth of the active compound-free control variant (100%) and the fungus-free and active compound-free blank value to determine the relative growth in % of the pathogens in the respective active compounds.
The expected efficacies of active compound combinations were determined using Colby's formula (Colby, S. R., Calculating synergistic and antagonistic responses of herbicide combinations, Weeds, 15, pp. 20-22, 1967) and compared with the observed efficacies. […]

| SMILES | Observed efficacy (0.25 ppm) [%] | Observed efficacy (1 ppm) [%] |
| --- | --- | --- |
| O=C(Nc1ccccc1-c1ccc(Cl)cc1)c1cccnc1Cl [Boscalid, boscalid] | 34 | – |
| CC1(C)C(C=C(Cl)Cl)C1C(=O)OC(C#N)c1cccc(Oc2ccccc2)c1 (stereo not drawn) [alpha-Cypermethrin, alpha-cypermethrin] | – | 2 |
